Results taken from patent US9474744B2, “Beta-lactam compounds for treating diabetes” (STEM CELL MEDICINE LTD., priority 2011, dated 2016).
Entries after “also recorded” stand apart in the source; their conditions may differ.

What was measured:
NOD mice = assay: Development of autoimmune diabetes in NOD mice; assay type: in vivo, mouse
From the text: Inbred female Lewis rats and NOD (non-obese diabetic) mice were supplied by the animal breeding center of the Weizmann Institute of Science, Israel, under the supervision of Harlan Laboratories and were used at 2-3 months of age. Experiments were approved by the Institutional Animal Care and Use Committee. Human peripheral blood lymphocytes from healthy donors were obtained from the blood bank of Sheba Medical Center, Tel Hashomer, Israel.
NOD mice spontaneously develop diabetes mellitus similar to type I diabetes in humans. […] The mice were followed for the development of diabetes, marked by blood sugar above 300 mg/dl on 2 measurements.

[1] = target: T1, albumin of human CD3 T cells (Homo sapiens, UniProt P02768); assay: Western blot with Pen 9 antibody of antibiotic-treated human T cells; assay type: cell-based; details: T cells activated by mitogen in presence of antibiotic
T1 construct: endogenous in cells; host or cells: primary human peripheral-blood T cells (CD3+, CD4+ or CD8+) from healthy donors
T1 sequence (P02768 25-609): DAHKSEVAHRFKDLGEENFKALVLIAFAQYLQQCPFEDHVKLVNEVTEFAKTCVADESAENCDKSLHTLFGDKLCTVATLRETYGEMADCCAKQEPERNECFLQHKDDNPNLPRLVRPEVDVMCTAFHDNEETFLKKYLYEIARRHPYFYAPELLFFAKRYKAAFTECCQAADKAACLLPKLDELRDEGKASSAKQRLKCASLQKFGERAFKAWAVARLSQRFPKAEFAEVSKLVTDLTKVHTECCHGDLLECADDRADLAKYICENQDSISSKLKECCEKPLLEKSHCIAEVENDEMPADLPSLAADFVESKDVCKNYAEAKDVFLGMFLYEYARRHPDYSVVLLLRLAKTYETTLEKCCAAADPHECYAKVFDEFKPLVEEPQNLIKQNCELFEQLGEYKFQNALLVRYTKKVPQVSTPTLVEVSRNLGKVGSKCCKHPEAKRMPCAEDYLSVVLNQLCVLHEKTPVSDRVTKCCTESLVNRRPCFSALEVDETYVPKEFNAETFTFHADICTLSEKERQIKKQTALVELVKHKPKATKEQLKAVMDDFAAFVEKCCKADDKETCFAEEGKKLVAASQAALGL
Protocol: Rat tissues were ground with a tissue grinder in lysis buffer. The homogenate was centrifuged 14000 g for 15 min in 4° C. and the supernatant was used for western blotting. The protein concentration was determined using the BIO-RAD DC™ protein assay (Bio-Rad laboratories, Hercules, Calif.). Following electrophoresis in SDS gel in a mini-gel apparatus (Bio-Rad), the gels were electro-transferred to nitrocellulose membranes (Schleicher and schuell, Dassel, Germany). The nitrocellulose membranes were washed with distilled water for 5 min, and then blocked for 60 min. using a blocking solution composed of 2% bovine serum albumin (Fraction V, Sigma, St. Louis Mo.), 2.5% milk powder (Bio-Rad), Tris (Sigma) pH 7.5 10 mM, NaCl 150 mM and 0.02% thimerosal (Sigma). After 3×10 min. washes in PBS/TWEEN® 20 (PBS/T; 0.02%, Sigma), primary antibodies (1/1000) were incubated with the membranes in PBS/TWEEN® for 60 min. Following another series of washes in PBS/T (3×10 min), the membranes were incubated with a secondary antibody (Peroxidase conjugated anti rabbit or anti mouse, IgG Jackson ImmunoResearch, West Grove, Calif.) at a 1/2500 dilution in 2% milk in PBS solution for 60 min. After another 3×10 min washes, the membranes were incubated with the ECL reagent (for 60 seconds) and exposed to X-ray film.

CD4+ human T cells = assay: Real-time PCR verification of six gene-array genes; assay type: cell-based; details: cDNA from the same RNA as the gene array; normalised to B2M
Protocol: To verify the results of the gene array, we synthesized real-time PCR primers (designed with the […]® probe design software (Roche)). Real-time PCR of 6 selected genes was performed using a […]® (Roche, Basel, Switzerland). RNA was reverse transcribed to cDNA from 1 μg of total RNA, which was then subjected to quantitative RT-PCR performed essentially according to the manufacturer's instructions. Specific primer pairs were used to amplify specific genes in the presence of 3 mM MgCl2. PCR was performed in triplicate in a total volume of 20 μl of […]® HotStart DNA SYBR Green I mix (Roche) containing primer and 5 μl of cDNA. […] Denaturation was performed for 15 s at 95° C., annealing was performed in 60° C., and the extension was performed at 72° C. for 20 s, with fluorescence detection at 72° C. after each cycle. After the final cycle, melting point analyses of all samples were performed within the range of 62-95° C. with continuous fluorescence detection. […]
The Human Autoimmune and Inflammatory Response Gene Array (SuperArray Bioscience corporation, Frederick, Md., USA) was used for analysis of gene expression by the T cells. […] To verify the results detected by the gene array study, a panel of six genes was designed and tested by real-time PCR: CCR4, ACVR2, JAK1, STAT4, TLR2 and NFKBIE. […]

[2] = test system: active experimental autoimmune encephalomyelitis (EAE) in Lewis rats; assay: Actively induced EAE in rats, oral antibiotic treatment; assay type: in vivo, rat; details: oral cefuroxime Axetil in drinking water from day 7 post-induction, 50 mg/kg daily, versus the two control groups

Structure (SMILES) | development of type I diabetes in NOD mice (NOD mice; FIG. 1D) | incidence of diabetes (NOD mice; at 5.7 months, s.c. at weekly intervals, ampicillin 1300 μg or ceftriaxone 675 μg per mouse, blood sugar above 300 mg/dl on 2 measurements, control 60%) | Pen 9 reactivity with lysates of antibiotic-treated T cells [1] | expression of CCR4, ACVR2, JAK1, STAT4, TLR2 and NFKBIE by real-time PCR (CD4+ human T cells) | severity of active EAE [2]
CC1(C)S[C@@H]2[C@H](NC(=O)[C@H](N)c3ccccc3)C(=O)N2[C@H]1C(=O)O [ampicillin] | Inhibition of type I diabetes | 30% | did not bind | – | –
CO/N=C(\C(=O)N[C@@H]1C(=O)N2C(C(=O)O)=C(COC(N)=O)CS[C@H]12)c1ccco1 [cefuroxime] | – | – | – | suppressed | significantly more severe EAE; also recorded: increases the severity of actively induced EAE
